PubChem BioAssay (NCI)
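Each compound was tested at five concentrations against cells in 96-well plates for 48 hours. TGI: total growth inhibition.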

Experiments:
Assay in all cases: NCI tumour cell line growth inhibition, 48 h
786-0 renal = test system: 786-0 renal
A549 NSCLC = test system: A549 NSCLC
ACHN renal = test system: ACHN renal
BT-549 breast = test system: BT-549 breast
CAKI-1 renal = test system: CAKI-1 renal
CCRF-CEM leukemia = test system: CCRF-CEM leukemia
COLO 205 colon = test system: COLO 205 colon
DU-145 prostate = test system: DU-145 prostate
EKVX NSCLC = test system: EKVX NSCLC
HCC-2998 colon = test system: HCC-2998 colon
HCT-116 colon = test system: HCT-116 colon
HCT-15 colon = test system: HCT-15 colon
HL-60(TB) leukemia = test system: HL-60(TB) leukemia
HOP-62 NSCLC = test system: HOP-62 NSCLC
HOP-92 NSCLC = test system: HOP-92 NSCLC
HS 578T breast = test system: HS 578T breast
HT29 colon = test system: HT29 colon
IGROV1 ovarian = test system: IGROV1 ovarian
KM12 colon = test system: KM12 colon
LOX IMVI melanoma = test system: LOX IMVI melanoma
M14 melanoma = test system: M14 melanoma
MCF7 breast = test system: MCF7 breast
MDA-MB-231 breast = test system: MDA-MB-231 breast
MDA-MB-435 = test system: MDA-MB-435
MDA-N = test system: MDA-N
MOLT-4 leukemia = test system: MOLT-4 leukemia
NCI-H23 lung = test system: NCI-H23 lung
NCI-H460 lung = test system: NCI-H460 lung
NCI-H522 lung = test system: NCI-H522 lung
NCI/ADR-RES ovarian = test system: NCI/ADR-RES ovarian
OVCAR-3 ovarian = test system: OVCAR-3 ovarian
OVCAR-4 ovarian = test system: OVCAR-4 ovarian
OVCAR-5 ovarian = test system: OVCAR-5 ovarian
OVCAR-8 ovarian = test system: OVCAR-8 ovarian
PC-3 prostate = test system: PC-3 prostate
RXF 393 renal = test system: RXF 393 renal
SF-268 CNS = test system: SF-268 CNS
SF-295 CNS = test system: SF-295 CNS
SF-539 CNS = test system: SF-539 CNS
SK-MEL-2 melanoma = test system: SK-MEL-2 melanoma
SK-MEL-28 melanoma = test system: SK-MEL-28 melanoma
SK-MEL-5 melanoma = test system: SK-MEL-5 melanoma
SK-OV-3 ovarian = test system: SK-OV-3 ovarian
SN12C renal = test system: SN12C renal
SNB-19 CNS = test system: SNB-19 CNS
SNB-75 CNS = test system: SNB-75 CNS
SW-620 colon = test system: SW-620 colon
TK-10 renal = test system: TK-10 renal
U251 CNS = test system: U251 CNS
UACC-257 melanoma = test system: UACC-257 melanoma
UACC-62 melanoma = test system: UACC-62 melanoma
UO-31 renal = test system: UO-31 renal
A498 renal = test system: A498 renal
K-562 leukemia = test system: K-562 leukemia
MALME-3M melanoma = test system: MALME-3M melanoma
NCI-H226 lung = test system: NCI-H226 lung
RPMI-8226 leukemia = test system: RPMI-8226 leukemia

**Q.** Which results are given for `Cc1ccc(NC(=O)/C(CC2N=c3c(ccc4c(O)c5ccccc5c(O)c34)=NC2O)=N/NC(C)(C)C)cc1` (configuration not stated)?
**A.** TGI (786-0 renal): 17.5 µM; TGI (A549 NSCLC): > 100 µM; TGI (ACHN renal): 38.6 µM; TGI (BT-549 breast): > 100 µM; TGI (CAKI-1 renal): 25.6 µM; TGI (CCRF-CEM leukemia): 7.26 µM; TGI (COLO 205 colon): > 100 µM; TGI (DU-145 prostate): 39.5 µM; TGI (EKVX NSCLC): > 100 µM; TGI (HCC-2998 colon): 78.5 µM; TGI (HCT-116 colon): 29.6 µM; TGI (HCT-15 colon): 44.5 µM; TGI (HL-60(TB) leukemia): 28.1 µM; TGI (HOP-62 NSCLC): 43.9 µM; TGI (HOP-92 NSCLC): 56.5 µM; TGI (HS 578T breast): 54.8 µM; TGI (HT29 colon): 43 µM; TGI (IGROV1 ovarian): 83.5 µM; TGI (KM12 colon): > 100 µM; TGI (LOX IMVI melanoma): 25.3 µM; TGI (M14 melanoma): 73.6 µM; TGI (MCF7 breast): > 100 µM; TGI (MDA-MB-231 breast): 18.8 µM; TGI (MDA-MB-435): > 100 µM; TGI (MDA-N): > 100 µM; TGI (MOLT-4 leukemia): 22.6 µM; TGI (NCI-H23 lung): 83.9 µM; TGI (NCI-H460 lung): 26.4 µM; TGI (NCI-H522 lung): 97.2 µM; TGI (NCI/ADR-RES ovarian): 20.2 µM; TGI (OVCAR-3 ovarian): 51.7 µM; TGI (OVCAR-4 ovarian): 45.1 µM; TGI (OVCAR-5 ovarian): > 100 µM; TGI (OVCAR-8 ovarian): 21.9 µM; TGI (PC-3 prostate): 78.1 µM; TGI (RXF 393 renal): 44.2 µM; TGI (SF-268 CNS): 59 µM; TGI (SF-295 CNS): > 100 µM; TGI (SF-539 CNS): 25.9 µM; TGI (SK-MEL-2 melanoma): 81.9 µM; TGI (SK-MEL-28 melanoma): 39.3 µM; TGI (SK-MEL-5 melanoma): 24.2 µM; TGI (SK-OV-3 ovarian): 33.6 µM; TGI (SN12C renal): 44.8 µM; TGI (SNB-19 CNS): > 100 µM; TGI (SNB-75 CNS): 91.1 µM; TGI (SW-620 colon): 70.2 µM; TGI (TK-10 renal): 39.6 µM; TGI (U251 CNS): 63.4 µM; TGI (UACC-257 melanoma): > 100 µM; TGI (UACC-62 melanoma): 45.8 µM; TGI (UO-31 renal): 17.5 µM

**Q.** How did the TGI (786-0 renal) turn out when `COc1ccc(-c2csc(-n3c(-c4ccccc4)nc4c(Br)cc(Br)cc4c3=O)n2)cc1` was run?
**A.** Its TGI is 54.4 µM.

**Q.** And the TGI (A498 renal)?
**A.** The TGI was 65.9 µM.

**Q.** What about the TGI (A549 NSCLC) of the same compound?
**A.** Its TGI is greater than 100 µM.

**Q.** What about the TGI (ACHN renal) of the same compound?
**A.** The TGI was greater than 100 µM.

**Q.** What about the TGI (BT-549 breast) of the same compound?
**A.** Its TGI is 88.8 µM.

**Q.** And the TGI (CAKI-1 renal)?
**A.** The TGI was greater than 100 µM.

**Q.** And the TGI (CCRF-CEM leukemia)?
**A.** The TGI was 43.6 µM.

**Q.** And the TGI (COLO 205 colon)?
**A.** The TGI was greater than 100 µM.

**Q.** And the TGI (DU-145 prostate)?
**A.** The TGI was greater than 100 µM.

**Q.** And the TGI (EKVX NSCLC)?
**A.** The TGI was 35.1 µM.

**Q.** And the TGI (HCC-2998 colon)?
**A.** Its TGI is greater than 100 µM.

**Q.** What about the TGI (HCT-116 colon) of the same compound?
**A.** Its TGI is 77.1 µM.

**Q.** What about the TGI (HCT-15 colon) of the same compound?
**A.** Its TGI is greater than 100 µM.

**Q.** And the TGI (HL-60(TB) leukemia)?
**A.** Its TGI is 49 µM.

**Q.** What about the TGI (HOP-62 NSCLC) of the same compound?
**A.** Its TGI is greater than 100 µM.

**Q.** And the TGI (HOP-92 NSCLC)?
**A.** Its TGI is 46.7 µM.

**Q.** What about the TGI (HS 578T breast) of the same compound?
**A.** The TGI was greater than 100 µM.

**Q.** And the TGI (HT29 colon)?
**A.** Its TGI is greater than 100 µM.

**Q.** What about the TGI (IGROV1 ovarian) of the same compound?
**A.** Its TGI is greater than 100 µM.

**Q.** And the TGI (K-562 leukemia)?
**A.** Its TGI is 58.7 µM.

**Q.** And the TGI (KM12 colon)?
**A.** The TGI was greater than 100 µM.

**Q.** And the TGI (LOX IMVI melanoma)?
**A.** The TGI was greater than 100 µM.

**Q.** And the TGI (M14 melanoma)?
**A.** The TGI was 96.4 µM.

**Q.** And the TGI (MALME-3M melanoma)?
**A.** The TGI was 59.2 µM.

**Q.** What about the TGI (MCF7 breast) of the same compound?
**A.** The TGI was greater than 100 µM.

**Q.** What about the TGI (MDA-MB-231 breast) of the same compound?
**A.** Its TGI is greater than 100 µM.

**Q.** What about the TGI (MDA-MB-435) of the same compound?
**A.** The TGI was 75.4 µM.

**Q.** And the TGI (MDA-N)?
**A.** Its TGI is 67.7 µM.

**Q.** What about the TGI (MOLT-4 leukemia) of the same compound?
**A.** Its TGI is greater than 100 µM.

**Q.** And the TGI (NCI-H226 lung)?
**A.** Its TGI is 90.7 µM.

**Q.** What about the TGI (NCI-H23 lung) of the same compound?
**A.** The TGI was 69.4 µM.

**Q.** And the TGI (NCI-H460 lung)?
**A.** The TGI was greater than 100 µM.

**Q.** What about the TGI (NCI-H522 lung) of the same compound?
**A.** The TGI was greater than 100 µM.

**Q.** And the TGI (NCI/ADR-RES ovarian)?
**A.** Its TGI is 85.5 µM.

**Q.** What about the TGI (OVCAR-3 ovarian) of the same compound?
**A.** Its TGI is greater than 100 µM.

**Q.** What about the TGI (OVCAR-4 ovarian) of the same compound?
**A.** The TGI was greater than 100 µM.

**Q.** What about the TGI (OVCAR-5 ovarian) of the same compound?
**A.** The TGI was greater than 100 µM.

**Q.** What about the TGI (OVCAR-8 ovarian) of the same compound?
**A.** The TGI was greater than 100 µM.

**Q.** What about the TGI (PC-3 prostate) of the same compound?
**A.** The TGI was greater than 100 µM.

**Q.** And the TGI (RPMI-8226 leukemia)?
**A.** The TGI was 31 µM.

**Q.** And the TGI (RXF 393 renal)?
**A.** The TGI was 76.4 µM.

**Q.** What about the TGI (SF-268 CNS) of the same compound?
**A.** The TGI was 67.1 µM.

**Q.** And the TGI (SF-295 CNS)?
**A.** The TGI was greater than 100 µM.

**Q.** What about the TGI (SK-MEL-2 melanoma) of the same compound?
**A.** Its TGI is greater than 100 µM.

**Q.** And the TGI (SK-MEL-28 melanoma)?
**A.** Its TGI is 57.8 µM.

**Q.** And the TGI (SK-MEL-5 melanoma)?
**A.** Its TGI is 36.9 µM.

**Q.** What about the TGI (SK-OV-3 ovarian) of the same compound?
**A.** The TGI was greater than 100 µM.

**Q.** What about the TGI (SNB-19 CNS) of the same compound?
**A.** Its TGI is greater than 100 µM.

**Q.** And the TGI (SNB-75 CNS)?
**A.** The TGI was greater than 100 µM.

**Q.** And the TGI (SW-620 colon)?
**A.** The TGI was greater than 100 µM.

**Q.** What about the TGI (TK-10 renal) of the same compound?
**A.** Its TGI is greater than 100 µM.

**Q.** What about the TGI (U251 CNS) of the same compound?
**A.** The TGI was greater than 100 µM.

**Q.** What about the TGI (UACC-257 melanoma) of the same compound?
**A.** Its TGI is greater than 100 µM.

**Q.** What about the TGI (UACC-62 melanoma) of the same compound?
**A.** Its TGI is greater than 100 µM.

**Q.** What about the TGI (UO-31 renal) of the same compound?
**A.** Its TGI is 68.2 µM.
